Values of other authors as cited in patent publication US20070212431A1, “Cream for treatment of skin injured by the sun” (priority 2001, published 2007).

Legend:
[1] = topical application to the skin
photodamaged skin = settings: controlled studies (Q-10); open uncontrolled clinical study (lipoic acid)
[2] = applied to the skin in ethyl alcohol solution, after penetrating the horny layer

Compound	time until found in the dermis [1]	effect on photodamaged skin (photodamaged skin)	share reaching the dermis [2]	share reaching the living part of epidermis [2]
O=C(O)CCCCC1CCSS1 (racemic) [lipoic acid, d,l-α-lipoic acid]	≤ 4 h	shown to have an effect on photodamaged skin to a certain extent		
COC1=C(OC)C(=O)C(C/C=C(\C)CC/C=C(\C)CC/C=C(\C)CC/C=C(\C)CC/C=C(\C)CC/C=C(\C)CC/C=C(\C)CC/C=C(\C)CC/C=C(\C)CCC=C(C)C)=C(C)C1=O [Q-10, coenzyme Q-10]		to some extent has been shown to have an effect	~2%	about 20%
